Values joined by “and” are separate entries in the source; they are usually repeats but may differ in a detail not shown here. Equal entries are not always repeated.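 Where inhibition never reached the appropriate level, the endpoint shown equals the highest concentration tested. Otherwise, values were interpolated linearly from a five-concentration, 48-hour dose response in 96-well plates. GI50: concentration for 50% inhibition of growth. TGI: total growth inhibition.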

Nine compounds from PubChem BioAssay (NCI) can be followed below.

Among the test systems are A498 renal; HOP-62 NSCLC; K-562 leukemia; M14 melanoma; MCF7 breast; MDA-MB-231 breast; OVCAR-8 ovarian; RPMI-8226 leukemia; SF-268 CNS; SK-OV-3 ovarian.
Assay in all cases: NCI-60 cell line screen, 48 h

Regarding `Cc1nc2ccc(N=Nc3c(O)ccc4ccccc34)cc2[nH]1`, the TGI in the test on A498 renal was more than 92.7 µM; with HOP-62 NSCLC, more than 100 µM; in the test with K-562 leukemia it was more than 100 µM; in the test with M14 melanoma, more than 81.5 µM; in the test with MCF7 breast it was 44.9 µM; with MDA-MB-231 breast, 53.6 µM. The TGI in the test on OVCAR-8 ovarian was 69.6 µM; with RPMI-8226 leukemia it was more than 82.8 µM; in the test on SF-268 CNS it was more than 100 µM; in the test with SK-OV-3 ovarian, more than 100 µM.
As to `O=[N+]([O-])c1ccccc1S(=O)(=O)c1ccccc1[N+](=O)[O-]`, the TGI with A498 renal was more than 100 µM; in the test on HOP-62 NSCLC, 87 µM; in the test with K-562 leukemia, more than 100 µM; in the test with M14 melanoma it was more than 100 µM; in the test with MCF7 breast it was more than 100 µM; in the test on MDA-MB-231 breast it was more than 100 µM. In addition, the TGI was more than 56.2 µM with OVCAR-8 ovarian, more than 100 µM in the test on RPMI-8226 leukemia, more than 89.3 µM with SF-268 CNS and more than 100 µM in the test on SK-OV-3 ovarian.
With `COc1ccc(Nc2nc(NCc3ccccc3)c3ccccc3n2)cc1`, the GI50 is 2.44 µM in the test with A498 renal; 10.1 µM in the test on HOP-62 NSCLC; 2.01 µM in the test on K-562 leukemia; 2.3 µM in the test on M14 melanoma; 1.81 µM in the test on MCF7 breast; 4.3 µM in the test on MDA-MB-231 breast. In addition, the GI50 is 2.17 µM in the test on OVCAR-8 ovarian, 1.85 µM with RPMI-8226 leukemia, 8.85 µM in the test with SF-268 CNS and 10.4 µM with SK-OV-3 ovarian. The TGI in the test on A498 renal turned out to be 13.9 µM; in the test on HOP-62 NSCLC, 22.4 µM; in the test with K-562 leukemia, 5.71 µM; in the test with M14 melanoma it was 5.73 µM; in the test on MCF7 breast, 3.63 µM; with MDA-MB-231 breast it was 16.9 µM. The TGI stood at 5.15 µM with OVCAR-8 ovarian, 4.85 µM in the test on RPMI-8226 leukemia, 25.1 µM in the test with SF-268 CNS and 22.1 µM in the test with SK-OV-3 ovarian.
`Cc1cc(NC(=O)NC(=O)c2ccccc2[N+](=O)[O-])ccc1Oc1ncc(Cl)cn1`: the TGI with A498 renal is 19.6 µM; in the test with HOP-62 NSCLC, 19.4 µM; with K-562 leukemia, more than 100 µM; in the test on M14 melanoma, 35.7 µM; with MCF7 breast, more than 100 µM; in the test on MDA-MB-231 breast, 26.9 µM. Also, the TGI was more than 37.9 µM in the test with OVCAR-8 ovarian, more than 100 µM in the test on RPMI-8226 leukemia, more than 82.3 µM with SF-268 CNS and 24.1 µM in the test on SK-OV-3 ovarian.
Consider `Nc1cccc(-c2nc3sccn3c2-c2ccnc(NCCCNS(=O)(=O)c3ccc(C(F)(F)F)cc3)n2)c1`, for which the GI50 with A498 renal is 3.35 µM; in the test with HOP-62 NSCLC, 5.16 µM; in the test on K-562 leukemia, 2.77 µM; in the test on M14 melanoma, 3.89 µM; in the test on MCF7 breast, 4.04 µM; in the test with MDA-MB-231 breast, 4.85 µM. In addition, the GI50 is 3.49 µM in the test on OVCAR-8 ovarian, 2.45 µM in the test on RPMI-8226 leukemia, 3.97 µM in the test on SF-268 CNS and 5.37 µM with SK-OV-3 ovarian. Further, the TGI was 49.5 µM with A498 renal; 24.3 µM with HOP-62 NSCLC; more than 100 µM with K-562 leukemia; 15.3 µM in the test on M14 melanoma; 18.5 µM with MCF7 breast; 94 µM with MDA-MB-231 breast. Moreover, the TGI with OVCAR-8 ovarian was 44.9 µM; in the test on RPMI-8226 leukemia, 6.54 µM; with SF-268 CNS, 49.6 µM; in the test on SK-OV-3 ovarian, more than 100 µM.
For `CCNC(=O)Nc1ccc(-c2nc3c(c(N4CCOC[C@@H]4C)n2)CCN(C2COC2)C3)cc1`, the GI50 with A498 renal was 0.0164 µM and 0.0305 µM; with HOP-62 NSCLC, 0.443 µM and 0.391 µM; with K-562 leukemia it was 1.27 µM and 1.1 µM; in the test on M14 melanoma it was 0.418 µM and 0.323 µM; in the test with MCF7 breast it was 0.121 µM and 0.115 µM; with MDA-MB-231 breast it was 0.392 µM and 0.267 µM. In addition, the GI50 in the test on OVCAR-8 ovarian is 0.46 µM and 0.534 µM; with RPMI-8226 leukemia, 0.286 µM and 0.218 µM; in the test with SF-268 CNS, 0.591 µM and 0.29 µM; with SK-OV-3 ovarian, 0.148 µM and 0.131 µM. In addition, the TGI with A498 renal was 0.114 µM and 0.2 µM; with HOP-62 NSCLC, 22 µM and > 7.45 µM; with K-562 leukemia, more than 100 µM; in the test with M14 melanoma, more than 100 µM; with MCF7 breast, more than 100 µM; with MDA-MB-231 breast, more than 48.2 µM. For the same compound, the TGI is more than 100 µM in the test on OVCAR-8 ovarian; 49 µM and > 8.49 µM in the test on RPMI-8226 leukemia; more than 100 µM in the test on SF-268 CNS; 1.16 µM and 0.956 µM with SK-OV-3 ovarian.
For the compound `Cc1nc(NC(=O)COc2cccc(/C=C3\COc4ccccc4C3=O)c2)sc1C`, the GI50 in the test on A498 renal is 12.6 µM; with HOP-62 NSCLC, 1.71 µM; in the test on K-562 leukemia, 3.1 µM; in the test with M14 melanoma, 1.83 µM; in the test with MCF7 breast, 0.665 µM; with MDA-MB-231 breast it was 2.63 µM. In addition, the GI50 was 2.36 µM in the test with OVCAR-8 ovarian, 14.8 µM in the test with RPMI-8226 leukemia, 1.85 µM with SF-268 CNS and 8.97 µM in the test with SK-OV-3 ovarian. The TGI was 25.2 µM in the test on A498 renal; 3.37 µM in the test with HOP-62 NSCLC; more than 100 µM in the test on K-562 leukemia; 3.75 µM in the test on M14 melanoma; 2.83 µM in the test on MCF7 breast; 7.41 µM in the test with MDA-MB-231 breast. In addition, the TGI was 5.78 µM in the test on OVCAR-8 ovarian, more than 100 µM with RPMI-8226 leukemia, 3.5 µM in the test on SF-268 CNS and 21.3 µM in the test on SK-OV-3 ovarian.
For the compound `Oc1ccc(Cl)cc1Cc1cc(Cl)cc(Cc2cc(Cl)ccc2O)c1O`, the TGI stood at 4.28 µM with A498 renal; 10.9 µM in the test with HOP-62 NSCLC; 10.3 µM in the test on K-562 leukemia; 6.71 µM in the test with M14 melanoma; 6.98 µM in the test with MCF7 breast; 8.83 µM in the test on MDA-MB-231 breast. Besides, the TGI in the test with OVCAR-8 ovarian was determined as 16.8 µM; in the test with RPMI-8226 leukemia it was 5.49 µM; in the test with SF-268 CNS, 12 µM; with SK-OV-3 ovarian, 8.5 µM.
As to `O=Cc1ncc(-c2ccc(C(F)(F)F)cc2)c(NC2CCCCCC2)n1`, the GI50 with A498 renal, with HOP-62 NSCLC, with K-562 leukemia, with M14 melanoma, with MCF7 breast and in the test on MDA-MB-231 breast was more than 10 µM each time. Moreover, the GI50 with OVCAR-8 ovarian, in the test on RPMI-8226 leukemia, in the test with SF-268 CNS and with SK-OV-3 ovarian was more than 10 µM each time. The TGI with A498 renal, with HOP-62 NSCLC, in the test on K-562 leukemia, with M14 melanoma, in the test on MCF7 breast and in the test on MDA-MB-231 breast was more than 10 µM in each case. Further, the TGI in the test on OVCAR-8 ovarian, in the test with RPMI-8226 leukemia, in the test on SF-268 CNS and in the test with SK-OV-3 ovarian was more than 10 µM in each case.
